2 molecules from patent US5912248A, “Excitatory amino acid receptor antagonists” (Eli Lilly and Company, priority 1996, dated 1999) can be followed below.

As usually defined, the IC50 is the point on the concentration scale where inhibition reaches its midpoint.

For the assay, the system named is metabotropic glutamate receptors. Kind of assay: displacement of 1S,3R-ACPD-sensitive [^3 H]glutamate binding to rat brain cell membranes. The conditions noted are these: crude membranes of rat forebrain. The protocol:
The binding of [^3 H]glutamate was conducted with crude membranes of rat forebrain as described by Schoepp and True, Neuroscience Lett., 145, 100-104 (1992) and Wright et al., J. Neurochemistry 63, 938-945, 1994.

The molecule `NC1(C(=O)O)CC(Sc2ccccc2)C2C(C(=O)O)C21` (stereo not drawn) [Example 1, 1SR,2RS,4SR,5SR,6SR-2-Amino-4-(phenylthio)bicyclo[3.1.0]hexane-2,6-dicarboxylic acid] yielded a concentration for half-maximal inhibition (IC50) of 242 nM.
As for `NC1(C(=O)O)CC(SCc2ccco2)C2C(C(=O)O)C21` (stereo not drawn) [Example 8, 1SR,2RS,4RS,5SR,6SR-2-Amino-4-((2-furanylmethyl)thio)bicyclo[3.1.0]hexane-2,6-dicarboxylic acid], the “activity in the binding test (in words)” value was “essentially inactive”.
